molecular target: T1, human CCR6 (Homo sapiens, UniProt P51684); experiment: FLIPR assay (inhibition of CCL20-induced calcium signal); assay type: cell-based; conditions: HEK-293 cells expressing human CCR6; mean values where determined several times; read-out: FLIPR IC50
T1 construct: expressed in transfected cells; host or cells: HEK-293
T1 sequence (P51684 1-374): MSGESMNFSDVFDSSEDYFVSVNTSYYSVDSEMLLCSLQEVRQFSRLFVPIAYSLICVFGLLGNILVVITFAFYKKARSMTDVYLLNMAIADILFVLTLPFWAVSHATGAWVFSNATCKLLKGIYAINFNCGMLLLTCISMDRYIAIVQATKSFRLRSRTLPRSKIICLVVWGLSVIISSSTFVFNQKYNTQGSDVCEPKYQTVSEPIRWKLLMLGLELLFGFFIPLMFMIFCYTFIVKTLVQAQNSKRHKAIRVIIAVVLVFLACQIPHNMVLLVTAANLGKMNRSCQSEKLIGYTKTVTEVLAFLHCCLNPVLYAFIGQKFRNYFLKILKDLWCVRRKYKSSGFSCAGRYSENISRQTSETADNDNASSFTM
Outline: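 IC50 values come from baseline-corrected peak calcium fluorescence after agonist. The agonist was CCL20 at 10 nM final, added to engineered human CCR6 HEK-293 cells following a 30-min, room-temperature, dark preincubation with serially diluted compound. Readings were taken in a fluorometric imaging plate reader.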

Point of comparison: `CC(=O)N1CCC(c2nc(-c3cncc([C@@](O)(c4ccc(C(C)C)cc4)C4(F)CN(C)C4)c3)no2)CC1` [Example 447, 1-[4-(3-{5-[(S)-(3-Fluoro-1-methyl-azetidin-3-yl)-hydroxy-(4-isopropyl-phenyl)-methyl]-pyridin-3-yl}-[1,2,4]oxadiazol-5-yl)-piperidin-1-yl]-ethanone], IC50 43.2 nM. Against it:
- CC(C)c1ccc([C@](O)(c2cncc(-c3noc(C(C)(C)O)n3)c2)C2(F)CN(C3CC3)C2)cc1 [Example 446, 2-(3-{5-[(S)-(1-Cyclopropyl-3-fluoro-azetidin-3-yl)-hydroxy-(4-isopropyl-phenyl)-methyl]-pyridin-3-yl}-[1,2,4]oxadiazol-5-yl)-propan-2-ol] — within 1.5-fold, 48.4 nM
- CC(=O)N1CCC(c2nc(-c3cncc([C@@](O)(c4ccc(C(C)C)cc4)C4(F)CN(C5CC5)C4)c3)no2)CC1 [Example 448, 1-[4-(3-{5-[(S)-(1-Cyclopropyl-3-fluoro-azetidin-3-yl)-hydroxy-(4-isopropyl-phenyl)-methyl]-pyridin-3-yl}-[1,2,4]oxadiazol-5-yl)-piperidin-1-yl]-ethanone] — within 1.5-fold, 35.2 nM
- CC(C)c1ccc([C@](O)(c2cncc(-c3noc(C(C)(C)O)n3)c2)C2(C)CN(C3CC3)C2)cc1 [Example 449, 2-(3-{5-[(R)-(1-Cyclopropyl-3-methyl-azetidin-3-yl)-hydroxy-(4-isopropyl-phenyl)-methyl]-pyridin-3-yl}-[1,2,4]oxadiazol-5-yl)-propan-2-ol] — within 1.5-fold, 40.8 nM
- CC(=O)N1CCC(c2nc(-c3cncc([C@@](O)(c4ccc(C(C)C)cc4)C4(C)CN(C5CC5)C4)c3)no2)CC1 [Example 450] — within 1.5-fold, 57.8 nM
- CC(C)c1ccc([C@](O)(c2cncc(-c3noc(C4CCOCC4)n3)c2)C2(C)CN(C3CC3)C2)cc1 [Example 451] — within 1.5-fold, 43.5 nM
- CC(C)c1ccc([C@](O)(c2cncc(-c3noc([C@H]4CC[C@H](O)CC4)n3)c2)C2(C)CN(C3CC3)C2)cc1 [Example 452] — within 1.5-fold, 33.6 nM
- CC(C)c1ccc([C@](O)(c2cncc(-c3noc(C4COC4)n3)c2)C2(C)CN(C3CC3)C2)cc1 [Example 453] — within 1.5-fold, 58.1 nM
- CC(=O)N1CC[C@H](Cc2nc(-c3cncc([C@@](O)(c4ccc(C(C)C)cc4)C4(C)CN(C)C4)c3)no2)C1 [Example 454, 1-[(R)-3-(3-{5-[(R)-(1,3-Dimethyl-azetidin-3-yl)-hydroxy-(4-isopropyl-phenyl)-methyl]-pyridin-3-yl}-[1,2,4]oxadiazol-5-ylmethyl)-pyrrolidin-1-yl]-ethanone] — 2.4-fold higher, 103 nM
- CC(=O)N1CCCC(c2nc(-c3cncc([C@@](O)(c4ccc(C(C)C)cc4)C4(C)CN(C)C4)c3)no2)C1 (some centres unmarked) [Example 455] — 1.9-fold higher, 83.1 nM
- CC(=O)N1CCCC(O)(c2nc(-c3cncc([C@@](O)(c4ccc(C(C)C)cc4)C4(C)CN(C)C4)c3)no2)C1 (some centres unmarked) [Example 456] — 4.7-fold higher, 201 nM
- CC(=O)N1CCCC(C)(c2nc(-c3cncc([C@@](O)(c4ccc(C(C)C)cc4)C4(C)CN(C)C4)c3)no2)C1 (some centres unmarked) [Example 457] — within 1.5-fold, 56.4 nM
- CC(=O)N1CCCC(Cc2nc(-c3cncc([C@@](O)(c4ccc(C(C)C)cc4)C4(C)CN(C)C4)c3)no2)C1 (some centres unmarked) [Example 458] — 2.3-fold higher, 99 nM
- CC(=O)N1CCC(O)(Cc2nc(-c3cncc([C@@](O)(c4ccc(C(C)C)cc4)C4(C)CN(C)C4)c3)no2)CC1 [Example 459] — 10-fold higher, 440 nM
- CC(=O)NC1(Cc2nc(-c3cncc([C@@](O)(c4ccc(C(C)C)cc4)C4(C)CN(C)C4)c3)no2)CC1 [Example 460, N-[1-(3-{5-[(R)-(1,3-Dimethyl-azetidin-3-yl)-hydroxy-(4-isopropyl-phenyl)-methyl]-pyridin-3-yl}-[1,2,4]oxadiazol-5-ylmethyl)-cyclopropyl]-acetamide] — 11-fold higher, 469 nM
- CC(C)c1ccc([C@](O)(c2cncc(-c3noc(CC4(NC(=O)C5CCOCC5)CC4)n3)c2)C2(C)CN(C)C2)cc1 [Example 461] — 8.9-fold higher, 384 nM
- COCC(=O)NC1(Cc2nc(-c3cncc([C@@](O)(c4ccc(C(C)C)cc4)C4(C)CN(C)C4)c3)no2)CC1 [Example 462] — 6.6-fold higher, 286 nM
- CC(=O)N(C)C1(Cc2nc(-c3cncc([C@@](O)(c4ccc(C(C)C)cc4)C4(C)CN(C)C4)c3)no2)CC1 [Example 463, N-[1-(3-{5-[(R)-(1,3-Dimethyl-azetidin-3-yl)-hydroxy-(4-isopropyl-phenyl)-methyl]-pyridin-3-yl}-[1,2,4]oxadiazol-5-ylmethyl)-cyclopropyl]-N-methyl-acetamide] — 2.8-fold higher, 122 nM
- CCC(=O)NC(C)(C)Cc1nc(-c2cncc([C@@](O)(c3ccc(C(C)C)cc3)C3(C)CN(C)C3)c2)no1 [Example 464, N-[2-(3-{5-[(R)-(1,3-Dimethyl-azetidin-3-yl)-hydroxy-(4-isopropyl-phenyl)-methyl]-pyridin-3-yl}-[1,2,4]oxadiazol-5-yl)-1,1-dimethyl-ethyl]-propionamide] — 3-fold higher, 129 nM
- COCC(=O)NC(C)(C)Cc1nc(-c2cncc([C@@](O)(c3ccc(C(C)C)cc3)C3(C)CN(C)C3)c2)no1 [Example 465] — 2-fold higher, 87.5 nM
- CC(C)c1ccc([C@](O)(c2cncc(-c3noc(CC(C)(C)NC(=O)C4CCOCC4)n3)c2)C2(C)CN(C)C2)cc1 [Example 466] — 3.3-fold higher, 143 nM
- CC(C)C(=O)NC(C)(C)Cc1nc(-c2cncc([C@@](O)(c3ccc(C(C)C)cc3)C3(C)CN(C)C3)c2)no1 [Example 467] — 3-fold higher, 129 nM
- CC(C)c1ccc([C@](O)(c2cncc(-c3noc(CC(C)(C)NC(=O)C4CC4)n3)c2)C2(C)CN(C)C2)cc1 [Example 468] — within 1.5-fold, 62.3 nM
- CC(=O)N1CC[C@H](c2nc(-c3cncc([C@@](O)(c4ccc(C(C)C)cc4)C4(C)CN(C)C4)c3)no2)C[C@@H]1C [Example 469] — 3.2-fold higher, 137 nM
- CC(C)C(=O)N1CCC(O)(c2nc(-c3cncc([C@@](O)(c4ccc(C(C)C)cc4)C4(C)CN(C)C4)c3)no2)CC1 [Example 470] — 3-fold higher, 131 nM
- CCC(=O)N1CCC(O)(c2nc(-c3cncc([C@@](O)(c4ccc(C(C)C)cc4)C4(C)CN(C)C4)c3)no2)CC1 [Example 471] — 2.9-fold higher, 125 nM
- COC1(c2nc(-c3cncc([C@@](O)(c4ccc(C(C)C)cc4)C4(C)CN(C)C4)c3)no2)CCN(C(C)=O)CC1 [Example 472] — 1.8-fold higher, 79.8 nM
- CC(C)c1ccc([C@](O)(c2cncc(-c3noc(C4CCN(C(=O)CC(F)(F)F)CC4)n3)c2)C2(C)CN(C)C2)cc1 [Example 473, 1-[4-(3-{5-[(R)-(1,3-Dimethyl-azetidin-3-yl)-hydroxy-(4-isopropyl-phenyl)-methyl]-pyridin-3-yl}-[1,2,4]oxadiazol-5-yl)-piperidin-1-yl]-3,3,3-trifluoro-propan-1-one] — 1.8-fold higher, 77.6 nM
- CC(C)c1ccc([C@](O)(c2cncc(-c3noc(C4CCN(C(=O)CC5COC5)CC4)n3)c2)C2(C)CN(C)C2)cc1 [Example 474, 1-[4-(3-{5-[(R)-(1,3-Dimethyl-azetidin-3-yl)-hydroxy-(4-isopropyl-phenyl)-methyl]-pyridin-3-yl}-[1,2,4]oxadiazol-5-yl)-piperidin-1-yl]-2-oxetan-3-yl-ethanone] — 2.8-fold higher, 121 nM
- CCC1(c2nc(-c3cncc([C@@](O)(c4ccc(C(C)C)cc4)C4(C)CN(C)C4)c3)no2)CCN(C(C)=O)CC1 [Example 475] — within 1.5-fold, 54.7 nM
- CC(C)c1ccc([C@](O)(c2cncc(-c3noc(C4CCN(C(=O)C5COC5)CC4)n3)c2)C2(C)CN(C)C2)cc1 [Example 476] — 2.6-fold higher, 112 nM
- COCC(=O)N1CCC(c2nc(-c3cncc([C@@](O)(c4ccc(C(C)C)cc4)C4(C)CN(C)C4)c3)no2)(C(C)C)CC1 [Example 477] — within 1.5-fold, 33.9 nM
